Assay results published in US5444069A, “Imidazo-pyridine angiotensin II antagonists used to treat memory loss” (Warner-Lambert Company, priority 1994, dated 1995).
Blank lines part the entries; values can stand above or below the molecule they belong to.

Tests used:
[1] = test system: rat striatum acetylcholine (ACh); assay: effect on rat striatal acetylcholine (ACh) levels; assay type: in vivo; details: 0.5 h, ± SEM, vehicle 61.0 ± 2.33, * p < 0.05
Protocol: ACh concentrations were determined as described below. Each
Results were analyzed by a oneway

[2] = test system: angiotensin II receptors (AT1/AT2) of corpus luteum; assay: inhibition of 125I-angiotensin II binding, corpus luteum; design: species or system rabbit
[3] = test system: angiotensin II receptors (AT1/AT2) of granulosa cell; details: 1 μM; 125I-angiotensin II; adapted from Pucell et al., Endocrinology 1991; cited from earlier work
[4] = biological target: T1, AT2 receptor (rabbit uterus receptor preparations) (Oryctolagus cuniculus, UniProt G1T351); assay: displacement of 3H-angiotensin II from rabbit uterus receptor preparations; assay type: binding; details: read-out: IC50 Values in Rabbit Uterine Preparations
T1 construct: cell membrane preparations derived from rabbit uterus and corpus luteum; from tissue; host or cells: rabbit uterus, cell membrane preparation
T1 sequence (G1T351 1-363): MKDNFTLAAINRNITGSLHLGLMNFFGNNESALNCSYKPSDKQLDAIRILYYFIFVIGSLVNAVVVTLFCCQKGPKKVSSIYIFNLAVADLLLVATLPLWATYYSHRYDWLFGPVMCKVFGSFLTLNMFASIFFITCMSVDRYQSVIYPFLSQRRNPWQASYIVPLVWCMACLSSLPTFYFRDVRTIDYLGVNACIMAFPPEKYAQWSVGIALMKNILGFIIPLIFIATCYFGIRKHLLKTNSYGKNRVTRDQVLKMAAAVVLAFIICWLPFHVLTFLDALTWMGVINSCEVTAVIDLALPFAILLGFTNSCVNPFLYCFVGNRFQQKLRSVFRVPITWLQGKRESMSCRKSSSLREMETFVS
Text: AT2 receptors are known to exist in organs of the female reproductive system. […] More specifically, AT2 receptors are densely located on granulosa cells in atretic follicles of the ovary.

[5] = Barnes et al., Neuroreport 1991, cited from earlier work
[6] = test system: angiotensin II induced secretion of AVP; details: isolated rat explants; Schiavone et al., Hypertension 1991; cited from earlier work
[7] = biological target: T2, AT2 receptor (whole rat brain) (Rattus norvegicus, UniProt P35351); assay: angiotensin II receptor binding in whole rat brain (DTT protocol); details: whole rat brain; DTT included to eliminate AT1 binding; read-out: IC50 Values in whole Rat Brain Preparations
T2 construct: IC50 Values in whole Rat Brain Preparations; from tissue; host or cells: whole rat brain
T2 sequence (P35351 1-363): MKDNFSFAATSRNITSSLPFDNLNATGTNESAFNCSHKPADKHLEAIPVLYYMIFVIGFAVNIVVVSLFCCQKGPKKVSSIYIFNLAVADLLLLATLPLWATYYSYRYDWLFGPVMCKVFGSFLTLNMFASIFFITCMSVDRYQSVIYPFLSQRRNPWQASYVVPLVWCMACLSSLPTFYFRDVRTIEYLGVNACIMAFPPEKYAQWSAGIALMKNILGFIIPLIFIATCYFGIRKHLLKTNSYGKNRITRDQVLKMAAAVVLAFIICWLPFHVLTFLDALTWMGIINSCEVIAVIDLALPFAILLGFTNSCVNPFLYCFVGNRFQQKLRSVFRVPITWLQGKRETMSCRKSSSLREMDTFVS
Text: Since receptor-specific binding in whole brain is low and is a mixture of two subtypes, an alternative protocol (Bennett and Snyder, Eur. J. Pharmacol., 67, 11-25) was used. This method includes DTT and thereby eliminates binding at AT1 receptors, thus-allowing evaluation of AT2 receptor events.

[8] = whole body autoradiography in rats; assay type: in vivo, rat
Protocol: The iodination was initiated by addition of chloramine-T (30 μg, 132 nMol) that was diluted to a concentration of 0.05 M in the same buffer as above. After shaking at room temperature for one minute the reaction was quenched with sodium metabisulfite (10 mg). […] This labeled material was reconstituted in 5% aqueous dextrose containing 30 mg/mL of the disodium salt of unlabeled Example 12 and adjusted to pH 9 by addition of several μL of 1 mM NaOH.
Male and female Sprague-Dawley rats (Charles River, Wilmington, average weight 281 g) were used in the autoradiography studies. Animals were on a fixed light cycle with unrestricted access to normal rat chow and water prior to the experiment. […] Animals were killed at 15 or 60 minutes postdose by halothane anesthesia and were rapidly frozen in acetone with dry ice. Carcasses were subsequently embedded in methylcellulose ice for whole-body sectioning and autoradiography. Autoradiograms were analyzed by computer assisted densitometry.
Results of the autoradiographical experiments are summarized in Table X. A relative scale of radioactivity is assigned with background equal to 0 and the most dense reading (liver and intestines) equal to 10. […] Another site that is highly labeled is the ovarian follicle. It is the most highly labeled non-excretory organ. All other tissues show weaker radioactivity.

[9] = test system: angiotensin II receptors (AT1 and AT2), rat brain regions; assay: displacement of 125I-angiotensin II from receptor preparations of rat brain regions; assay type: binding; details: antagonist 10 μM
Protocol: The concentration of all three antagonist compounds in these experiments is 1 μM (above the maximal effect concentration).

[10] = 30 mg/kg i.v. rat, scale 0-10, represents excretion

IC50 [4]: 150 nM
Structure (SMILES): CC(=O)Nc1ccc(Cn2cnc3c2C[C@@H](C(=O)O)N(C(=O)C(c2ccccc2)c2ccccc2)C3)cc1C [Example 11, (S)-(-)-[[4-(acetylamino)-3-methylphenyl]methyl]-5-(diphenylacetyl)-4,5,6,7-tetrahydro-1H-imidazo-[4,5-c]pyridine-6-carboxylic acid]

IC50 [4]: 25 nM
IC50 [7]: 570 nM
Structure (SMILES): Cc1cc(Cn2cnc3c2C[C@@H](C(=O)O)N(C(=O)C(c2ccccc2)c2ccccc2)C3)cc(I)c1O [Example 12, (S)-(-)-5-(diphenylacetyl)-1-[(4-hydroxy-3-iodo-5-methylphenyl)methyl]-4,5,6,7-tetrahydro-1H-imidazo[4,5-c]pyridine-6-carboxylic acid]
tissue distribution (in words) ([8]; rat, autoradiography): selectively distribute to the ovarian follicle

IC50 [7]: 780 nM
Structure (SMILES): O=C(O)[C@@H]1Cc2c(ncn2Cc2ccc(C(F)(F)F)cc2)CN1C(=O)C(c1ccccc1)c1ccccc1 [Example 15, (S)-(-)-5-(diphenylacetyl)-4,5,6,7-tetrahydro-1-[[4-(trifluoromethyl)-phenyl]methyl]-1H-imidazo[4,5-c]pyridine-6-carboxylic acid]

IC50 [7]: 1600 nM
Structure (SMILES): Cc1cccc(Cn2cnc3c2C[C@@H](C(=O)O)N(C(=O)C(c2ccccc2)c2ccccc2)C3)c1 [Example 16, (S)-(-)-5-(diphenylacetyl)-4,5,6,7-tetrahydro-1-[(3-methylphenyl)methyl]-1H-imidazo[4,5-c]pyridine-6-carboxylic acid]

125I-Angiotensin II Bound, Brain Stem ([9]; rat brain stem, total 2124): 288 cpm
125I-Angiotensin II Bound, Cerebellum ([9]; rat cerebellum, total 571): 269 cpm
125I-Angiotensin II Bound, Cortex ([9]; rat cortex, total 766): 336 cpm
125I-Angiotensin II Bound, Cortical Neurons ([9]; rat cortical neurons, total 2647): 293 cpm
125I-Angiotensin II Bound, Striatal Membrane ([9]; rat striatal membrane, total 2462): 1295 cpm
Structure (SMILES): CNCC(=O)N[C@@H](CCCN=C(N)N)C(=O)N[C@H](C(=O)N[C@@H](Cc1ccc(O)cc1)C(=O)N[C@H](C(=O)N[C@@H](Cc1cnc[nH]1)C(=O)N1CCC[C@H]1C(=O)N[C@@H](C)C(=O)O)C(C)C)C(C)C [SAR, saralasin, reference compound]

Relative Radioactivity, Adrenal ([8]; 30 mg/kg i.v. rat, scale 0-10): 3
Relative Radioactivity, Blood ([8]; 30 mg/kg i.v. rat, scale 0-10): 4
Relative Radioactivity, Heart ([8]; 30 mg/kg i.v. rat, scale 0-10): 3
Relative Radioactivity, Kidney ([8]; 30 mg/kg i.v. rat, scale 0-10): 4-8
Relative Radioactivity, Lung ([8]; 30 mg/kg i.v. rat, scale 0-10): 4
Relative Radioactivity, Ovarian follicle ([8]; 30 mg/kg i.v. rat, scale 0-10): 9
Relative Radioactivity, Ovary (non-follicular) ([8]; 30 mg/kg i.v. rat, scale 0-10): 3-5
Relative Radioactivity, Salivary gland ([8]; 30 mg/kg i.v. rat, scale 0-10): 6-7
Relative Radioactivity, Thymus ([8]; 30 mg/kg i.v. rat, scale 0-10): 3
Relative Radioactivity, Uterus ([8]; 30 mg/kg i.v. rat, scale 0-10): 2-3
Relative Radioactivity, Bladder [8, 10]: 4-6
Relative Radioactivity, Intestines [8, 10]: 10
Relative Radioactivity, Liver [8, 10]: 10
Relative Radioactivity, Testicle ([8]; 30 mg/kg i.v. rat, scale background 0 to most dense 10): 1-2
Structure (SMILES): Cc1cc(Cn2cnc3c2C[C@@H](C(=O)O)N(C(=O)C(c2ccccc2)c2ccccc2)C3)cc([125I])c1O [^125 CI-Example 12]

Further lines, the molecule ahead of its results:

Structure (SMILES): CCCCc1nc(Cl)c(CO)n1Cc1ccc(-c2ccccc2-c2nn[nH]n2)cc1 [DUP 753, reference compound]
ACh concentration, rat striatum ([1]; 30 mg/kg IP): 67.5 ± 5.71 nM/g
% Inhibition with 1 μM Antagonist, Corpus luteum ([2]; 1 μM, 125I-angiotensin II, data from Warner-Lambert Co.): 97%
displacement of 125I-angiotensin II, corpus luteum (in words) ([2]; Table IX): displaces nearly all of the radioligand
% Inhibition with 1 μM Antagonist, Granulosa cell [3]: 3%

Structure (SMILES): Cc1cc(Cn2cnc3c2C[C@@H](C(=O)O)N(C(=O)C(c2ccccc2)c2ccccc2)C3)ccc1N [Example 2, (S)-(-)-1-[(4-amino-3-methylphenyl)-methyl]-5-(diphenylacetyl)-4,5,6,7-tetrahydro-1H-imidazo[4,5-c]pyridine-6-carboxylic acid]
IC50 [4]: 32 nM
reversal of scopolamine-induced amnesia [5]: reverses scopalamine-induced amnesia
cognition enhancement ([5]; rodent behavioral models): does indeed possess cognition enhancing actions in rodent behavioral models
antagonism of angiotensin II induced AVP secretion [6]: antagonizing the angiotensin II induced secretion of AVP

Structure (SMILES): COc1ccc(Cn2cnc3c2C[C@@H](C(=O)O)N(C(=O)C(c2ccccc2)c2ccccc2)C3)cc1C [Example 3, (S)-(-)-5-(diphenylacetyl)-4,5,6,7-tetrahydro-1-[(4-methoxy-3-methyl-phenyl)methyl]-1H-imidazo[4,5-c]pyridine-6-carboxylic acid]
IC50 [4]: 26 nM

Structure (SMILES): O=C(O)[C@@H]1Cc2c(ncn2CCC23CC4CC(CC(C4)C2)C3)CN1C(=O)C(c1ccccc1)c1ccccc1 [Example 4]
IC50 [4]: 91 nM
IC50 [7]: 180 nM

Structure (SMILES): Cc1cc(Cn2cnc3c2C[C@@H](C(=O)O)N(C(=O)C(c2ccc(F)cc2)c2ccc(F)cc2)C3)ccc1N(C)C [Example 5, (S)-(-)-5-[bis(4-fluorophenyl)acetyl)-1-[[4-(dimethylamino)-3-methyl-phenyl]methyl]-4,5,6,7-tetrahydro-1H-imidazo[4,5-c]pyridine-6-carboxylic acid]
IC50 [4]: 38 nM

Structure (SMILES): COc1ccc(Cn2cnc3c2C[C@@H](C(=O)O)N(C(=O)C2c4ccccc4-c4ccccc42)C3)cc1C [Example 6]
IC50 [4]: 1200 nM

Structure (SMILES): Cc1cc(Cn2cnc3c2C[C@@H](C(=O)O)N(C(=O)C(c2ccccc2)c2ccccc2)C3)ccc1[N+](=O)[O-] [Example 7]
IC50 [4]: 67 nM

Structure (SMILES): O=C(O)[C@@H]1Cc2c(ncn2Cc2ccccc2)CN1C(=O)C(c1ccccc1)c1ccccc1 [Example 8, (S)-(-)-5-(diphenylacetyl)-4,5,6,7-tetrahydro-1-(phenylmethyl)-1H-imidazo[4,5-c]pyridine-6-carboxylic acid]
IC50 [4]: 74 nM
IC50 [7]: 3800 nM

Structure (SMILES): COc1ccc(Cn2cnc3c2C[C@@H](C(=O)O)N(C(=O)Cc2ccccc2)C3)cc1C [Example 9, (S)-(-)-4,5,6,7-tetrahydro-1-[(4-methoxy-3-methylphenyl)methyl]-5-(phenylacetyl)-1H-imidazo-[4,5-c]pyridine-6-carboxylic acid]
IC50 [4]: 95 nM

Structure (SMILES): COc1ccc(Cn2cnc3c2C[C@@H](C(=O)O)N(C(=O)C(c2ccc(Cl)cc2)c2ccc(Cl)cc2)C3)cc1C [Example 10, (S)-(-)-5-[bis(4-chlorophenyl)acetyl]-4,5,6,7-tetrahydro-1-[(4-methoxy-3-methylphenyl)methyl]-1H-imidazo-[4,5-c]pyridine-6-carboxylic acid]
IC50 [4]: 120 nM

Structure (SMILES): O=C(CCCN1CCC(O)(c2ccc(Cl)cc2)CC1)c1ccc(F)cc1 [Haloperidol, haloperidol, reference compound]
ACh concentration, rat striatum ([1]; 2 mg/kg IP): 36.9 ± 3.27 nM/g
